This note sets out measurements from patent US8598356B2, “Heteroaryl-substituted urea modulators of fatty acid amide hydrolase” (Janssen Pharmaceutica NV, priority 2008, dated 2013).

Some results are limits rather than exact numbers.

In general, IC50 refers to the concentration that inhibits the measured activity by half. A higher IC50 goes with lower potency.

One experiment addresses T1, Human FAAH (Homo sapiens, UniProt O00519).
T1 construct: expressed in transfected cells; alternatively T84 frozen cell pellets
T1 sequence (O00519 1-579): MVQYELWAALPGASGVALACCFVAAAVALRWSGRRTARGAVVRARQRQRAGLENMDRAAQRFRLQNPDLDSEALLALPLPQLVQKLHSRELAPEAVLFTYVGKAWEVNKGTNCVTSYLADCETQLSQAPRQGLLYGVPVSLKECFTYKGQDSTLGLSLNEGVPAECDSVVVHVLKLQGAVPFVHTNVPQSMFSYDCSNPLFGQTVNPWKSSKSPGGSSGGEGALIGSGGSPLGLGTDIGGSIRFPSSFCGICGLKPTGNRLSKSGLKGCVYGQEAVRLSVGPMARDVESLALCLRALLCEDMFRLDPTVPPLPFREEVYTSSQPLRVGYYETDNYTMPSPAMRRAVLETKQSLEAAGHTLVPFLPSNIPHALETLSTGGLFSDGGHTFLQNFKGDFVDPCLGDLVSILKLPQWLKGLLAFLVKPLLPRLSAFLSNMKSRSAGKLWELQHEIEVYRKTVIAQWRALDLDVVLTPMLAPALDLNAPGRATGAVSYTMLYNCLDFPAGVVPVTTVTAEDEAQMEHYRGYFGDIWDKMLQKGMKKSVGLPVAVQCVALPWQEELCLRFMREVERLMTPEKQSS
As to the kind of experiment: Assay Method 1: FAAH assay, hydrolysis of 3H-anandamide by cell homogenate. The class given is biochemical. Conditions: T84 or transfected SK-N-MC cell homogenate, 3H-AEA 80 nM, rt 1 h, average of results obtained. On the procedure: A. Transfection of Cells with Human FAAH
(§1) A 10-cm tissue culture dish with a confluent monolayer of SK-N-MC cells was split 2 days (d) prior to transfection. Using sterile technique, the media was removed and the cells were detached from the dish by the addition of trypsin. One fifth of the cells were then placed onto a new 10-cm dish. Cells were grown in a 37° C. incubator with 5% CO2 in Minimal Essential Media Eagle with 10% Fetal Bovine Serum. After 2 d, cells were approximately 80% confluent. These cells were removed from the dish with trypsin and pelleted in a clinical centrifuge. The pellet was re-suspended in 400 μL complete media and transferred to an electroporation cuvette with a 0.4 cm gap between the electrodes. Supercoiled human FAAH cDNA (1 μg) was added to the cells and mixed. The voltage for the electroporation was set at 0.25 kV, and the capacitance was set at 960 μF. After electroporation, the cells were diluted into complete media (10 mL) and plated onto four 10-cm dishes. Because of the variability in the efficiency of electroporation, four different concentrations of cells were plated. The ratios used were 1:20, 1:10, and 1:5, with the remainder of the cells being added to the fourth dish. The cells were allowed to recover for 24 h before adding the selection media (complete media with 600 μg/mL G418). After 10 d, dishes were analyzed for surviving colonies of cells. Dishes with well-isolated colonies were used. Cells from individual colonies were isolated and tested.
(§2) T84 frozen cell pellets or transfected SK-N-MC cells (contents of 1×15 cm culture dishes) were homogenized in 50 mL of FAAH assay buffer (125 mM Tris, 1 mM EDTA, 0.2% Glycerol, 0.02% Triton X-100, 0.4 mM Hepes, pH 9). The assay mixture consisted of 50 μL of the cell homogenate, 10 μL of the test compound, and 40 μL of anandamide [1-^3H-ethanolamine] (^3H-AEA, Perkin-Elmer, 10.3 Ci/mmol), which was added last, for a final tracer concentration of 80 nM. The reaction mixture was incubated at rt for 1 h. During the incubation, 96-well Multiscreen filter plates (catalog number MAFCNOB50; Millipore, Bedford, Mass., USA) were loaded with 25 μL of activated charcoal (Multiscreen column loader, catalog number MACL09625, Millipore) and washed once with 100 μL of MeOH. Also during the incubation, 96-well DYNEX MicroLite plates (catalog number NL510410) were loaded with 100 μL of MicroScint40 (catalog number 6013641, Packard Bioscience, Meriden, Conn., USA). After the 1 h incubation, 60 μL of the reaction mixture were transferred to the charcoal plates, which were then assembled on top of the DYNEX plates using
Centrifuge Alignment Frames (catalog number MACF09604, Millipore). The unbound labeled ethanolamine was centrifuged through to the bottom plate (5 min at 2000 rpm), which was preloaded with the scintillant, as described above. The plates were sealed and left at rt for 1 h before counting on a Hewlett Packard TopCount.
(§3) Results for compounds tested in these assays are summarized in Table 1, as an average of results obtained. Compounds were tested in free base, hydrochloride salt, and/or trifluoroacetic acid salt forms. Where activity is shown as greater than (>) a particular value, the value is the solubility limit of the compound in the assay medium or the highest concentration tested in the assay.

A further experiment deals with T2, Rat FAAH (Rattus norvegicus, UniProt P97612).
T2 construct: expressed in transfected cells
T2 sequence (P97612 1-579): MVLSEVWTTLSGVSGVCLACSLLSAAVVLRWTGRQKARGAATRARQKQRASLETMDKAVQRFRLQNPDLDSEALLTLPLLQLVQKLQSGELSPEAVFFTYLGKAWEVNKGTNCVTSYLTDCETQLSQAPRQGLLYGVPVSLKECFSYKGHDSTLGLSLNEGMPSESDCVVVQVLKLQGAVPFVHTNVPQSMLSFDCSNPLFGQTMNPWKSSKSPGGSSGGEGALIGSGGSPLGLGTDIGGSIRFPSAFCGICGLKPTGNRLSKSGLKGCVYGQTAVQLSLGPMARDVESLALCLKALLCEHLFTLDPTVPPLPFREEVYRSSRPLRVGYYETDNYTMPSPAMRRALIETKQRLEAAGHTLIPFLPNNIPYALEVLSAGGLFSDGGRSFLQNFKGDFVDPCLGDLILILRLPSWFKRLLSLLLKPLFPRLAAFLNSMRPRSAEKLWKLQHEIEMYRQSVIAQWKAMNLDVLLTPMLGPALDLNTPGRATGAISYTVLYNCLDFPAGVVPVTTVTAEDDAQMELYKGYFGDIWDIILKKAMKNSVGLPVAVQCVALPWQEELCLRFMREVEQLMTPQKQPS
The experiment can be described thus: Assay Method 2: FAAH assay, hydrolysis of 3H-anandamide by cell homogenate. The format is biochemical. As to conditions: T84 or transfected SK-N-MC cell homogenate, 3H-AEA 80 nM, rt 1 h, average of results obtained. As for the experimental part: A. Transfection of Cells with Rat FAAH
as §1, with “rat” for “human”, “[…]” for “960 μF.”
as §2, with “25” for “25 μL”, “using Centrifuge Alignment Frames (catalog number MACF09604, Millipore). The unbound labeled ethanolamine was centrifuged through to the bottom plate (5 min at 2000 rpm), which was preloaded with the scintillant, as described above. The plates were sealed and left at rt for 1 h before counting on a Hewlett Packard TopCount.” for “using”
as §3

In the case of `O=C(Nc1cccnc1)N1CCCC(Cc2cccc(Oc3ccc(Cl)cc3)c2)C1` (single isomer, unassigned; (+)) [Example 13, (+)-3-[3-(4-Chloro-phenoxy)-benzyl]-piperidine-1-carboxylic acid pyridin-3-ylamide], the values for the IC50 against Human FAAH and at Rat FAAH were 0.019 µM and 0.031 µM, respectively.

Consider `O=C(Nc1cccnc1)N1CCCC(Cc2cccc(Oc3ccc(Cl)cc3)c2)C1` (single isomer, unassigned; (-)) [Example 14, (−)-3-[3-(4-Chloro-phenoxy)-benzyl]-piperidine-1-carboxylic acid pyridin-3-ylamide], for which the results for the half-inhibitory concentration (IC50) at Human FAAH and on Rat FAAH were 0.073 µM and 0.027 µM, respectively.

As to `O=C(Nc1cccnc1)N1CCCC(Cc2ccc3c(c2)OC(F)(F)O3)C1` (stereo not shown) [Example 1, 3-(2,2-Difluoro-benzo[1,3]dioxol-5-ylmethyl)-piperidine-1-carboxylic acid pyridin-3-ylamide], the half-maximal inhibitory concentration (IC50) against Human FAAH is 0.41 µM; against Rat FAAH it was 0.604 µM.

Consider `O=C(Nc1ccncn1)N1CCCC(Cc2ccc(C(F)(F)F)cc2)C1` (stereo not shown) [Example 2, N-Pyrimidin-4-yl-3-{[4-(trifluoromethyl)phenyl]methyl}piperidine-1-carboxamide], for which the IC50 at Human FAAH was 8 µM; on Rat FAAH, above 10 µM.

As for `O=C(Nc1ccncn1)N1CCCC(Cc2cccc(C(F)(F)F)c2)C1` (stereo not shown) [Example 3, N-Pyrimidin-4-yl-3-{[3-(trifluoromethyl)phenyl]methyl}piperidine-1-carboxamide], the IC50 against Human FAAH came to 8 µM; at Rat FAAH it was 10 µM.

Regarding `O=C(Nc1ccncn1)N1CCCC(Cc2ccc(F)cc2)C1` (stereo not shown) [Example 4, 3-[4(4-Fluorophenyl)methyl]-N-pyrimidin-4-ylpiperidine-1-carboxamide], the IC50 was 10 µM against Human FAAH and above 10 µM against Rat FAAH.

As to `O=C(Nc1noc2ccccc12)N1CCCC(Cc2ccc(C(F)(F)F)cc2)C1` (stereo not shown) [Example 5, N-1,2-Benzisoxazol-3-yl-3-{[4-(trifluoromethyl)-phenyl]-methyl}-piperidine-1-carboxamide], the IC50 at Human FAAH came to 2 µM; on Rat FAAH it was 0.183 µM.

In the case of `O=C(Nc1noc2ccccc12)N1CCCC(Cc2cccc(C(F)(F)F)c2)C1` (stereo not shown) [Example 6, N-1,2-Benzisoxazol-3-yl-3-{[3-(trifluoromethyl)-phenyl]-methyl}-piperidine-1-carboxamide], the results for the IC50 against Human FAAH and against Rat FAAH were 0.645 µM and 0.05 µM, respectively.

Regarding `O=C(Nc1noc2ccccc12)N1CCCC(Cc2ccc(F)cc2)C1` (stereo not shown) [Example 7, N-1,2-Benzisoxazol-3-yl-3-[(4-fluorophenyl)methyl]piperidine-1-carboxamide], the IC50 is 2 µM against Human FAAH and 0.152 µM on Rat FAAH.

For `O=C(Nc1ccon1)N1CCCC(Cc2ccc(C(F)(F)F)cc2)C1` (stereo not shown) [Example 8, N-Isoxazol-3-yl-3-{[4-(trifluoromethyl)phenyl]methyl}piperidine-1-carboxamide], the concentration for half-maximal inhibition (IC50) at Human FAAH was 10 µM; on Rat FAAH it was above 10 µM.

On to `O=C(Nc1ccon1)N1CCCC(Cc2cccc(C(F)(F)F)c2)C1` (stereo not shown) [Example 9, N-Isoxazol-3-yl-3-{[3-(trifluoromethyl)phenyl]methyl}piperidine-1-carboxamide], for which the IC50 was determined as 7 µM on Human FAAH and 9 µM at Rat FAAH.

Take `O=C(Nc1cccnc1)N1CCCC(Cc2cccc(Oc3ccc(F)cc3)c2)C1` (stereo not shown) [Example 10, 3-[3-(4-Fluorophenoxy)benzyl]-N-pyridin-3-ylpiperidine-1-carboxamide]: the IC50 against Human FAAH stood at 0.018 µM; at Rat FAAH, 0.019 µM.

Consider `O=C(Nc1cnccc1Cl)N1CCCC(Cc2cccc(Oc3ccc(F)cc3)c2)C1` (stereo not shown) [Example 11, 3-[3-(4-Fluoro-phenoxy)-benzyl]-piperidine-1-carboxylic acid (4-chloro-pyridin-3-yl)-amide], for which the values for the half-maximal inhibitory concentration (IC50) on Human FAAH and against Rat FAAH were 0.087 µM and 0.008 µM, respectively.

On to `O=C(Nc1cnc2cccnn12)N1CCCC(Cc2cccc(Oc3ccc(F)cc3)c2)C1` (stereo not shown) [Example 12, 3-[3-(4-Fluoro-phenoxy)-benzyl]-piperidine-1-carboxylic acid imidazo[1,2-b]pyridazin-3-ylamide], for which the results for the IC50 against Human FAAH and at Rat FAAH were 0.056 µM and 0.007 µM, respectively.
